{"source": "paper PMC6722498", "about": "“Non-CYP2D6 Variants Selected by a GWAS Improve the Prediction of Impaired Tamoxifen Metabolism in Patients with Breast Cancer” (Journal of Clinical Medicine, 2019)", "key": {"[1]": {"test": "Metabolic ratio (MR): (Z)-endoxifen plasma concentration divided by the sum of concentrations of tamoxifen and other measured metabolites", "format": "in vivo, human", "details": "for Metabolic Ratio of (Z)-endoxifen, Mean ± SD: tamoxifen 20 mg daily, plasma; for Metabolic ratio (MR): individual tamoxifen-treated breast cancer patient samples", "from_the_text": "We previously reported that the CYP2D6 genotype accounts for 51% of the variability in tamoxifen metabolism directed toward endoxifen production, expressed as the metabolic ratio (MR) of (Z)-endoxifen (the major isomer of endoxifen produced from tamoxifen) plasma concentration divided by the sum of concentrations of tamoxifen and other measured metabolites. The metabolic ratio is more useful than (Z)-endoxifen concentration alone, because it accounts for omitted drug doses or the concomitant use of CYP2D6 inhibitors. Using simple linear regression, we estimated that an MR value of 0.0146 corresponds to the predefined 6 ng mL^−1 (Z)-endoxifen efficacy threshold level. Here, we adopted a genome-wide association study (GWAS) approach to search for new DNA variants that could assist in the prediction of impaired tamoxifen metabolism in Polish patients with breast cancer treated with the standard daily dose (20 mg).\n(§1) Between May 2012 and June 2014, 293 patients were recruited for a study of CYP2D6 genotype association with plasma concentrations of tamoxifen and its metabolites. Details of the inclusion criteria, study protocol, genotyping and mass spectrometry (MS) methodology, and primary results were reported previously. Briefly, all patients were Polish Caucasians, unselected women with verified hormone receptor-positive breast cancer (median age at diagnosis: 55 years; range: 25–95 years) receiving the standard treatment of 20 mg of tamoxifen daily for at least 1 month to ensure the steady-state plasma concentration of tested compounds. The median time between the initiation of tamoxifen treatment and blood sample collection was 21.5 months. Six patients had plasma drug concentrations <10% of the mean tamoxifen level across all patients and were excluded from further analyses.\n(§2) As previously described, whole blood samples were collected at study enrollment, and plasma was immediately separated and stored at −80 °C until ultraperformance liquid chromatography tandem MS (UPLC-MS/MS) analysis. For all samples, plasma concentrations of tamoxifen and its 14 key metabolites were measured, including the following: NDM-Tam, (Z)-endoxifen, (E)-endoxifen, 3-OH-NDM-Tam, 4′-OH-NDM-Tam, (Z)-4-OH-Tam, 3-OH-Tam, 4′-OH-Tam, (Z)-α-OH-Tam, (E)-α-OH-Tam, Tam-N-oxide, Tam-N-β-D-glucuronide (Tam-N-gluc), (E/Z)-4-OH-NDM-Tam-β-D-glucuronide ((E/Z)-4-OH-NDM-Tam-gluc), and (E)-4-OH-Tam-O-β-D-glucuronide ((E)-4-OH-Tam-O-gluc). All of the above compounds and deuterated internal standards (Tam-d5, NDM-Tam-d5, and (Z)-4-OH-Tam-d5) were from Toronto Research Chemicals (North York, ON, Canada). Details of the sample preparation method, MS/MS parameters, and linearity ranges of the metabolite standards are included in File S1.\nGenomic DNA samples extracted from blood were genotyped for CYP2D6 alleles, according to the nomenclature described at https://www.parmvar.org/gene/CYP2D6 [10], as previously reported. Briefly, individual TaqMan allelic discrimination assays were performed for 11 SNPs, and 3 TaqMan Gene Copy Number Assays were conducted to assess gene deletion or duplication (Thermo Fisher, Waltham, MA, USA). Each CYP2D6 allele was assigned to one of four phenotypic categories, according to its associated enzyme function. PM (nonfunctional) alleles included CYP2D6*3, *4, *5, *6, and *7; IM (reduced-function) alleles were CYP2D6*9, *10, *17, and *41; NM (WT; fully functional) alleles included CYP2D6*1 and *2; and UM (increased-function) alleles were duplicates of NM variants, such as CYP2D6*1XN and *2XN. For the current study, patients were categorized into two groups of CYP2D6 functional activity: 1) Impaired metabolizers, who were presumed to have impaired metabolism of tamoxifen toward endoxifen (with CYP2D6 diplotypes PM/PM, IM/PM, IM/IM, NM/PM, and NM/IM), and 2) normal metabolizers, with predicted therapeutically effective tamoxifen metabolism (carrying CYP2D6 diplotypes NM/NM and NM/UM)."}, "[2]": {"parameters": "method as in PMID 26232141", "details": "Polish women with fully active CYP2D6 (NM/NM); tamoxifen 20 mg daily; cited from earlier work"}, "[3]": {"parameters": "method as in PMID 26232141", "details": "simple linear regression; corresponds to predefined 6 ng mL^−1 (Z)-endoxifen threshold; cited from earlier work"}, "[4]": {"test": "Steady-state plasma concentration of (Z)-endoxifen (UPLC-MS/MS) in tamoxifen-treated breast cancer patients", "format": "in vivo, human", "details": "tamoxifen 20 mg daily", "from_the_text": "as §1, §2\nSample preparation was carried out as described by Dahmane et al., with slight modifications, including protein precipitation by acetonitrile. Briefly, 100 µl of plasma was mixed with 300 µl of ISs solution (3.3 ng/ml of Tam-d5, 3.3 ng/ml of NDM-Tam-d5 and 4.2 ng/ml of (Z)-4-OH-Tam-d5) in acetonitrile. After vortexing and centrifugation (10 min; 18,000× g), 350 µl of clear supernatant was evaporated under nitrogen in 55°C. Finally, samples were dissolved in 100 µl of 10 mM ammonium formate in 50% methanol.\nFor sample separation, an Acquity UPLC system equipped with Acquity BEH Shield RP18 column (100 × 2.1 mm, 1.7 µm particle size) (Waters, Milford, MA, USA) was used. The column was thermostatted at 70°C. The mobile phase A consisted of ultrapure water, and phase B consisted of 0.1% formic acid in acetonitrile. The flow rate was 0.6 ml/min and the total run time was 16 min per sample under nonlinear gradient condition as follows: 10% to 80% B for 12 min (concave curve), 80% B for 2 min, 95% B for 1 min and 10% B for 1 min.\nDetection was performed on a triple quadrupole mass spectrometer Xevo TQ-MS (Waters) in the positive ion electrospray ionization mode, with general mass spectrometry (MS) parameters as follows: capillary voltage, 3 kV; desolvation temperature, 550°C; desolvation gas (nitrogen) flow, 1000 l/h; cone gas (nitrogen) flow, 100 l/h and collision gas (argon) flow, 0.15 ml/min. Waters QuanLynx software was used for chromatograms integration and quantitation.\nAll compounds were divided between two calibration sets, A and B (Table 1), based on characteristic ions and retention times. Each set consisted of six calibration samples (CAL1 to CAL6) prepared by spiking blank plasma sample by an appropriate amount of analyte. The calibration range was chosen based on others’ published data, expected steady-state plasma metabolite concentration and our previous measurements. Linear calibration curves were obtained by plotting response (obtained by dividing peak area of analyte by peak area of internal standard) against calibration point of known concentration. […]"}, "[5]": {"test_system": "estrogen receptor (ER)", "parameters": "method as in PMID 15111773, PMID 16690721, PMID 21451508", "details": "fold higher; cited from earlier work"}, "[6]": {"test_system": "breast cancer", "details": "cited from earlier work"}}, "note": "“And” between values parts separate entries of the source, which are not always exact repeats. Equal entries are not always repeated. Where two headings read alike, the source gives them in different places.", "data": [{"compound": "CC/C(=C(\\c1ccc(O)cc1)c1ccc(OCCNC)cc1)c1ccccc1", "note": "[(Z)-endoxifen, (Z)-4-hydroxy-N-desmethyl-tamoxifen]", "values": [{"measurement": "Metabolic Ratio of (Z)-endoxifen, Mean ± SD", "setting": "[1]; CYP2D6 genotype IM/IM (n=3)", "value": "0.0063 ± 0.0022"}, {"measurement": "Metabolic Ratio of (Z)-endoxifen, Mean ± SD", "setting": "[1]; CYP2D6 genotype IM/PM (n=12)", "value": "0.0047 ± 0.0014"}, {"measurement": "Metabolic Ratio of (Z)-endoxifen, Mean ± SD", "setting": "[1]; CYP2D6 genotype NM/IM (n=44)", "value": "0.0125 ± 0.0054"}, {"measurement": "Metabolic Ratio of (Z)-endoxifen, Mean ± SD", "setting": "[1]; CYP2D6 genotype NM/NM (n=90)", "value": "0.0185 ± 0.0057"}, {"measurement": "Metabolic Ratio of (Z)-endoxifen, Mean ± SD", "setting": "[1]; CYP2D6 genotype NM/PM (n=99)", "value": "0.0108 ± 0.0043"}, {"measurement": "Metabolic Ratio of (Z)-endoxifen, Mean ± SD", "setting": "[1]; CYP2D6 genotype NM/UM (n=18)", "value": "0.0201 ± 0.0076"}, {"measurement": "Metabolic Ratio of (Z)-endoxifen, Mean ± SD", "setting": "[1]; CYP2D6 genotype PM/PM (n=21)", "value": "0.0037 ± 0.0013"}, {"measurement": "Metabolic ratio (MR)", "setting": "[1]; CYP2D6 genotype IM/PM", "value": "0.00274 and 0.00459 and 0.0029 and 0.00363"}, {"measurement": "Metabolic ratio (MR)", "setting": "[1]; CYP2D6 genotype NM/IM", "value": "0.00647 and 0.0081 and 0.00839 and 0.01209 and 0.0056 and 0.01085 and 0.0096 and 0.00997 and 0.01604"}, {"measurement": "Metabolic ratio (MR)", "setting": "[1]; CYP2D6 genotype NM/NM", "value": "0.01773 and 0.01628 and 0.0192 and 0.02007 and 0.01314 and 0.01689 and 0.01957 and 0.01357 and 0.0089 and 0.01713 and 0.01204 and 0.01768 and 0.01853 and 0.01753 and 0.01866 and 0.01752 and 0.01504 and 0.00404 and 0.01279 and 0.01592 and 0.01076 and 0.01005 and 0.01645"}, {"measurement": "Metabolic ratio (MR)", "setting": "[1]; CYP2D6 genotype NM/PM", "value": "0.01496 and 0.01155 and 0.00944 and 0.00815 and 0.01001 and 0.01495 and 0.00803 and 0.01657 and 0.01419 and 0.01098 and 0.0072 and 0.00801 and 0.01175 and 0.00523 and 0.00652 and 0.00522 and 0.00788 and 0.00603 and 0.00607 and 0.00605 and 0.01073"}, {"measurement": "Metabolic ratio (MR)", "setting": "[1]; CYP2D6 genotype NM/UM", "value": "0.013 and 0.01894 and 0.02933 and 0.01233"}, {"measurement": "Metabolic ratio (MR)", "setting": "[1]; CYP2D6 genotype PM/PM", "value": "0.00294 and 0.00405 and 0.0035 and 0.00163"}, {"measurement": "proportion of patients not achieving the beneficial threshold level of plasma (Z)-endoxifen", "setting": "[2]", "value": "over 30%"}, {"measurement": "MR value corresponding to the (Z)-endoxifen efficacy threshold level", "setting": "[3]", "value": 0.0146}, {"measurement": "(Z)-endoxifen steady-state plasma concentration, Mean ± SD", "setting": "[4]; CYP2D6 genotype IM/IM (n=3)", "value": "3.05 ± 1.91", "unit": "ng/mL"}, {"measurement": "(Z)-endoxifen steady-state plasma concentration, Mean ± SD", "setting": "[4]; CYP2D6 genotype IM/PM (n=12)", "value": "2.22 ± 0.87", "unit": "ng/mL"}, {"measurement": "(Z)-endoxifen steady-state plasma concentration, Mean ± SD", "setting": "[4]; CYP2D6 genotype NM/IM (n=44)", "value": "5.60 ± 3.26", "unit": "ng/mL"}, {"measurement": "(Z)-endoxifen steady-state plasma concentration, Mean ± SD", "setting": "[4]; CYP2D6 genotype NM/NM (n=90)", "value": "7.26 ± 3.18", "unit": "ng/mL"}, {"measurement": "(Z)-endoxifen steady-state plasma concentration, Mean ± SD", "setting": "[4]; CYP2D6 genotype NM/PM (n=99)", "value": "4.85 ± 2.46", "unit": "ng/mL"}, {"measurement": "(Z)-endoxifen steady-state plasma concentration, Mean ± SD", "setting": "[4]; CYP2D6 genotype NM/UM (n=18)", "value": "6.96 ± 3.75", "unit": "ng/mL"}, {"measurement": "(Z)-endoxifen steady-state plasma concentration, Mean ± SD", "setting": "[4]; CYP2D6 genotype PM/PM (n=21)", "value": "1.79 ± 0.66", "unit": "ng/mL"}]}, {"compound": "CC/C(=C(\\c1ccc(O)cc1)c1ccc(OCCNC)cc1)c1ccccc1", "note": "[endoxifen, 4-hydroxy-N-desmethyl-tamoxifen]", "values": [{"measurement": "antiestrogenic potency relative to other tamoxifen metabolites and the parent drug", "setting": "[5]", "value": "up to 100 fold"}, {"measurement": "minimal threshold level of endoxifen to achieve the desired treatment efficacy", "setting": "[6]; large retrospective study, lowest quintile", "value": "> 5.97", "unit": "ng/mL"}, {"measurement": "lower breast cancer recurrence rate relative to patients with lower endoxifen concentrations", "setting": "[6]; patients with endoxifen concentration >5.97 ng mL^−1", "value": 26, "unit": "%"}, {"measurement": "endoxifen efficacy threshold level", "setting": "[6]; ref 30", "value": 5.3, "unit": "ng/mL"}, {"measurement": "endoxifen efficacy threshold level", "setting": "[6]; ref 32", "value": 3.36, "unit": "ng/mL"}]}, {"compound": "4-hydroxy-tamoxifen [4-OH-Tam]", "values": [{"measurement": "antiestrogenic potency relative to other tamoxifen metabolites and the parent drug", "setting": "[5]", "value": "up to 100 fold"}]}]}
